Results as given in ChEMBL document CHEMBL4507315 (2021).

How the values were obtained:
[1] = tested on: Hepatocyte growth factor receptor (Homo sapiens), P08581 [M1250T]; details: Compound concentration 100.0 nM
[2] = molecular target: Tyrosine-protein kinase Fer (Homo sapiens) (UniProt P16591); details: Compound concentration 100.0 nM
[3] = tested on: Serine/threonine-protein kinase B-raf (Homo sapiens), P15056 [V600E]; details: Compound concentration 100.0 nM
[4] = molecular target: Serine/threonine-protein kinase tousled-like 1 (Homo sapiens) (UniProt Q9UKI8); details: Compound concentration 100.0 nM
[5] = molecular target: Membrane-associated tyrosine- and threonine-specific cdc2-inhibitory kinase (Homo sapiens) (UniProt Q99640); details: Compound concentration 100.0 nM
Membrane-associated tyrosine- and threonine-specific cdc2-inhibitory kinase (Homo sapiens), sequence (Q99640 whole entry): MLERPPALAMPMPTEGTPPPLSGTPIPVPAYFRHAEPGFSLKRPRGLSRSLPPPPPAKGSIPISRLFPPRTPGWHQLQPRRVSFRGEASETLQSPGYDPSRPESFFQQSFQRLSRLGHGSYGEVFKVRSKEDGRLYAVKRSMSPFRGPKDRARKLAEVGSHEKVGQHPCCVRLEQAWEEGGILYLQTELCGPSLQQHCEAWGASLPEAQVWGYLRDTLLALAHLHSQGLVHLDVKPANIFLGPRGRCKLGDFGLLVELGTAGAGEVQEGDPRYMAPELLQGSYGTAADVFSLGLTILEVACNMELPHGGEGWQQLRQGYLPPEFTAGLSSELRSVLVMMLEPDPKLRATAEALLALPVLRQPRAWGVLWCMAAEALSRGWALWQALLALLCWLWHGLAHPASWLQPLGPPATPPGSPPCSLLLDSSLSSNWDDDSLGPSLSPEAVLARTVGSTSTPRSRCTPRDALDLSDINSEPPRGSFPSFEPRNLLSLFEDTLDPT

[6] = molecular target: Cyclin-dependent kinase 5 (Homo sapiens) (UniProt Q00535); details: Compound concentration 100.0 nM
[7] = molecular target: Rhodopsin kinase GRK7 (Homo sapiens) (UniProt Q8WTQ7); details: Compound concentration 100.0 nM
[8] = molecular target: Maternal embryonic leucine zipper kinase (Homo sapiens) (UniProt Q14680); details: Compound concentration 100.0 nM
[9] = molecular target: Tyrosine-protein kinase HCK (Homo sapiens) (UniProt P08631); details: Compound concentration 100.0 nM
[10] = molecular target: Ribosomal protein S6 kinase alpha-5 (Homo sapiens) (UniProt O75582); details: Compound concentration 100.0 nM
[11] = molecular target: Cyclin-dependent kinase 9 (Homo sapiens) (UniProt P50750); details: Compound concentration 100.0 nM
[12] = molecular target: D(3) dopamine receptor (Homo sapiens) (UniProt P35462); details: Compound concentration 10.0 uM
[13] = molecular target: Mitogen-activated protein kinase 6 (Homo sapiens) (UniProt Q16659); details: Compound concentration 100.0 nM
[14] = molecular target: Leukocyte tyrosine kinase receptor (Homo sapiens) (UniProt P29376); details: Compound concentration 100.0 nM
[15] = molecular target: Serine/threonine-protein kinase 36 (Homo sapiens) (UniProt Q9NRP7); details: Compound concentration 100.0 nM
[16] = molecular target: Serine/threonine-protein kinase LATS1 (Homo sapiens) (UniProt O95835); details: Compound concentration 100.0 nM
[17] = molecular target: NT-3 growth factor receptor (Homo sapiens) (UniProt Q16288); details: Compound concentration 100.0 nM
[18] = molecular target: Dual specificity mitogen-activated protein kinase kinase 5 (Homo sapiens) (UniProt Q13163); details: Compound concentration 100.0 nM
[19] = molecular target: Tyrosine-protein kinase Fes/Fps (Homo sapiens) (UniProt P07332); details: Compound concentration 100.0 nM
[20] = molecular target: Beta-1 adrenergic receptor (Homo sapiens) (UniProt P08588); details: Compound concentration 10.0 uM
[21] = molecular target: Mitogen-activated protein kinase kinase kinase 15 (Homo sapiens) (UniProt Q6ZN16); details: Compound concentration 100.0 nM
Mitogen-activated protein kinase kinase kinase 15 (Homo sapiens), sequence (Q6ZN16 whole entry): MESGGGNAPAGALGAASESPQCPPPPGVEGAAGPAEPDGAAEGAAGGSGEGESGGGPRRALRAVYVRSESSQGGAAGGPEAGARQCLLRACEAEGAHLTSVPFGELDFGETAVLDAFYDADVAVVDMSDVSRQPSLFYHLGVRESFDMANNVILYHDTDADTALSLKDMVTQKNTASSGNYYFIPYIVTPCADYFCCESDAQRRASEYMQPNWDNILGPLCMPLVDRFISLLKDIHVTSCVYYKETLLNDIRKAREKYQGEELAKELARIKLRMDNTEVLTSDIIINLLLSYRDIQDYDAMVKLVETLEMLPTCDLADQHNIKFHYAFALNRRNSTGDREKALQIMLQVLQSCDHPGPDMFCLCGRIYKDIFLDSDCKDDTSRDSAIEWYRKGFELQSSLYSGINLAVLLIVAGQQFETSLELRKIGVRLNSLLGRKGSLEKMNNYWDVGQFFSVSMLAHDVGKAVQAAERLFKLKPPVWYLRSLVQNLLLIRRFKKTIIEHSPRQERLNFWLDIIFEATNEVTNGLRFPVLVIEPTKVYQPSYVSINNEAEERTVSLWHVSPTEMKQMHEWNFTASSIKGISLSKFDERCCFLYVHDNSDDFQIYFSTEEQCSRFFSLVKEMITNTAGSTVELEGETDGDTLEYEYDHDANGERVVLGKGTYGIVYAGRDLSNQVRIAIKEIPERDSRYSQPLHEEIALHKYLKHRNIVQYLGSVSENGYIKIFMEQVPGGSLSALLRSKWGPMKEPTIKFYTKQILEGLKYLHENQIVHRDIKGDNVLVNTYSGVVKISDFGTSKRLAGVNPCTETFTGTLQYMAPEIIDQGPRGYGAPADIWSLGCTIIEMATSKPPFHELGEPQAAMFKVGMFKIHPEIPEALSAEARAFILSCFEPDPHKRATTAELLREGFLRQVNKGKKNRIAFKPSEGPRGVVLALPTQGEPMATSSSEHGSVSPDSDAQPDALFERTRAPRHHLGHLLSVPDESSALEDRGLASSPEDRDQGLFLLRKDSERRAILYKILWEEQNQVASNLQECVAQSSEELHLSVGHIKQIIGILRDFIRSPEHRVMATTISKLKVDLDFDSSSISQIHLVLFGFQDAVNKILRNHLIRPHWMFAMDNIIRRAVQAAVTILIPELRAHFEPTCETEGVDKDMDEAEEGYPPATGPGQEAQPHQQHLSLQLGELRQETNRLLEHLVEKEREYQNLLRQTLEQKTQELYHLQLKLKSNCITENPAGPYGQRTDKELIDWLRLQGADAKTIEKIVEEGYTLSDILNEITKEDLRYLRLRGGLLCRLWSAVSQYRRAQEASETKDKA

[22] = tested on: Epidermal growth factor receptor (Homo sapiens), P00533 [UNDEFINED MUTATION]; details: Compound concentration 100.0 nM
[23] = molecular target: Serine/threonine-protein kinase PAK 4 (Homo sapiens) (UniProt O96013); details: Compound concentration 100.0 nM
[24] = molecular target: Dual specificity mitogen-activated protein kinase kinase 1 (Homo sapiens) (UniProt Q02750); details: Compound concentration 100.0 nM
[25] = molecular target: Ephrin type-A receptor 2 (Homo sapiens) (UniProt P29317); details: Compound concentration 100.0 nM
[26] = molecular target: Serine/threonine-protein kinase PLK4 (Homo sapiens) (UniProt O00444); details: Compound concentration 100.0 nM
Serine/threonine-protein kinase PLK4 (Homo sapiens), sequence (O00444 whole entry): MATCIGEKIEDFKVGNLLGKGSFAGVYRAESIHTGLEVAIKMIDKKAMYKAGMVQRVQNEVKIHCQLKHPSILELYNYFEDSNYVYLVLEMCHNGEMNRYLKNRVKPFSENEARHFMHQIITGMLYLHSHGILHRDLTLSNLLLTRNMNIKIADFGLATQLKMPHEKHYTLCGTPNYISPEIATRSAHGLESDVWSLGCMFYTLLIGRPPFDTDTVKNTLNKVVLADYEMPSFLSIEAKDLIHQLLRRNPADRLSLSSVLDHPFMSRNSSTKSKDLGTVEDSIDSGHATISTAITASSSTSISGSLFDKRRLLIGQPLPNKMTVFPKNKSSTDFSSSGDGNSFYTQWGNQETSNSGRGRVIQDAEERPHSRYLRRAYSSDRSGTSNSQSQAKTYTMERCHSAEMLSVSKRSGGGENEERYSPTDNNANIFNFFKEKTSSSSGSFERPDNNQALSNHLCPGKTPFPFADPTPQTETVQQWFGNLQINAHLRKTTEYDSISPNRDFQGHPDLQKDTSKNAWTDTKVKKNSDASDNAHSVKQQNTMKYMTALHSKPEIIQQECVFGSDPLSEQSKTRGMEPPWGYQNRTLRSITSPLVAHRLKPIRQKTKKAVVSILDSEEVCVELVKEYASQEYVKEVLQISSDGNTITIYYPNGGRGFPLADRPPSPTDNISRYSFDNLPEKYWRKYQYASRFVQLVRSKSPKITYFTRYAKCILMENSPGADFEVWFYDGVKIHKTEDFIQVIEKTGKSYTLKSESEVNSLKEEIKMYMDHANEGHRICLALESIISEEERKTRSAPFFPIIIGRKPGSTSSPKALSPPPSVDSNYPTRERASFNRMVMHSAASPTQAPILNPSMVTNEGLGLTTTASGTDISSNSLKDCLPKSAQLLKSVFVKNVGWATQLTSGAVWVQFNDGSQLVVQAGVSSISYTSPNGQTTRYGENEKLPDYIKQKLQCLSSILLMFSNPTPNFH

[27] = molecular target: Non-receptor tyrosine-protein kinase TYK2 (Homo sapiens) (UniProt P29597); details: Compound concentration 100.0 nM
[28] = molecular target: Fibroblast growth factor receptor 1 (Homo sapiens) (UniProt P11362); details: Compound concentration 100.0 nM
[29] = molecular target: Protein-tyrosine kinase 6 (Homo sapiens) (UniProt Q13882); details: Compound concentration 100.0 nM
[30] = tested on: Epidermal growth factor receptor (Homo sapiens), P00533 [L858R]; details: Compound concentration 100.0 nM
[31] = molecular target: Mitogen-activated protein kinase 11 (Homo sapiens) (UniProt Q15759); details: Compound concentration 100.0 nM
[32] = molecular target: Serine/threonine-protein kinase PknB (Mycobacterium tuberculosis) (UniProt P9WI81); details: Compound concentration 100.0 nM
Serine/threonine-protein kinase PknB (Mycobacterium tuberculosis), sequence (P9WI81 whole entry): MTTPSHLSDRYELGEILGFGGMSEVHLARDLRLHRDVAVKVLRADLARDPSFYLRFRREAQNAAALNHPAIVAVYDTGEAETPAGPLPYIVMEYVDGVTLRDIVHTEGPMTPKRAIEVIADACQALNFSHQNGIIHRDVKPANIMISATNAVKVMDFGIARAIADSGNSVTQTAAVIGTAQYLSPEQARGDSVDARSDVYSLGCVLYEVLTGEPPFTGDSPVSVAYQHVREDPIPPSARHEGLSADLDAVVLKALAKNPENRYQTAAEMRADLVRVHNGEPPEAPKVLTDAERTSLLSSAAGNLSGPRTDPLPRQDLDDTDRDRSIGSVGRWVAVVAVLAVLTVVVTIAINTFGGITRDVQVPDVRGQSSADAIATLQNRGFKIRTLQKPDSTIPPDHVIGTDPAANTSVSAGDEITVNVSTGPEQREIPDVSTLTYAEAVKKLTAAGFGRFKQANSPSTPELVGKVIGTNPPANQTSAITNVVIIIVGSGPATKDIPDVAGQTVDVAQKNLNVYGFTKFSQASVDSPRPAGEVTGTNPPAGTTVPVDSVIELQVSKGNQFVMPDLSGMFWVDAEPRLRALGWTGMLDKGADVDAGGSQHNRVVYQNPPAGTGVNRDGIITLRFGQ

[33] = molecular target: Serine/threonine-protein kinase haspin (Homo sapiens) (UniProt Q8TF76); details: Compound concentration 100.0 nM
[34] = tested on: Proto-oncogene tyrosine-protein kinase receptor Ret (Homo sapiens), P07949 [V804M]; details: Compound concentration 100.0 nM
[35] = molecular target: Muscle, skeletal receptor tyrosine-protein kinase (Homo sapiens) (UniProt O15146); details: Compound concentration 100.0 nM
Muscle, skeletal receptor tyrosine-protein kinase (Homo sapiens), sequence (O15146 whole entry): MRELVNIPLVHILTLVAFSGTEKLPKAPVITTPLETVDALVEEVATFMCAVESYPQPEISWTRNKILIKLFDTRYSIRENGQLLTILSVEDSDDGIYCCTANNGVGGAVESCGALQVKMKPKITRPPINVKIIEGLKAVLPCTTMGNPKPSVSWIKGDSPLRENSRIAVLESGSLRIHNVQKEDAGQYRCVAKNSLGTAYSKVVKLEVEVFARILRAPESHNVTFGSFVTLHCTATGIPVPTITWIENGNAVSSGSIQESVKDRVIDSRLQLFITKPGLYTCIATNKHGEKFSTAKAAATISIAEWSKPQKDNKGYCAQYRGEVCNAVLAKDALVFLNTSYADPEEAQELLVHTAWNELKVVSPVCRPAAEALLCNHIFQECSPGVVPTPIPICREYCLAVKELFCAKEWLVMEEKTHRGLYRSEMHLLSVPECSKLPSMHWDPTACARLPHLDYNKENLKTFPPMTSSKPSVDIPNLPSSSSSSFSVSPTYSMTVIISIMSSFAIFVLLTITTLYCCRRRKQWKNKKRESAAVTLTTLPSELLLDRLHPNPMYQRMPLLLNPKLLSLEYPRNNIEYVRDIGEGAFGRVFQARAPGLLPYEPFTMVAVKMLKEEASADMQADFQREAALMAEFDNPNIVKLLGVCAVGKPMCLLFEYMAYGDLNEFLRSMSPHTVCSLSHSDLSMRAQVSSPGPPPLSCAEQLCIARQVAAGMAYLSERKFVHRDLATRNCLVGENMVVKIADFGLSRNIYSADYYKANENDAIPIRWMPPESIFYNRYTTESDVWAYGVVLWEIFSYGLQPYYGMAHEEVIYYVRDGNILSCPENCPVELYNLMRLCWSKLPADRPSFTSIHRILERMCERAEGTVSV

[36] = molecular target: Glycogen synthase kinase-3 beta (Homo sapiens) (UniProt P49841); details: Compound concentration 100.0 nM
[37] = tested on: Phosphatidylinositol 4,5-bisphosphate 3-kinase catalytic subunit alpha isoform (Homo sapiens), P42336 [Q546K]; details: Compound concentration 100.0 nM
[38] = molecular target: Mitogen-activated protein kinase 8 (Homo sapiens) (UniProt P45983); details: Compound concentration 100.0 nM
[39] = molecular target: Receptor-type tyrosine-protein kinase FLT3 (Homo sapiens) (UniProt P36888); details: Compound concentration 100.0 nM
[40] = molecular target: Serine/threonine-protein kinase pim-1 (Homo sapiens) (UniProt P11309); details: Compound concentration 100.0 nM
[41] = molecular target: Cyclin-dependent kinase 11B (Homo sapiens) (UniProt P21127); details: Compound concentration 100.0 nM
[42] = molecular target: Dual specificity mitogen-activated protein kinase kinase 4 (Homo sapiens) (UniProt P45985); details: Compound concentration 100.0 nM
[43] = molecular target: Myosin light chain kinase, smooth muscle (Homo sapiens) (UniProt Q15746); details: Compound concentration 100.0 nM
[44] = molecular target: Ribosomal protein S6 kinase beta-1 (Homo sapiens) (UniProt P23443); details: Compound concentration 100.0 nM
[45] = molecular target: Glycogen synthase kinase-3 alpha (Homo sapiens) (UniProt P49840); details: Compound concentration 100.0 nM

Serine/threonine-protein kinase B-raf (Homo sapiens), P15056 [V600E], sequence (P15056 whole entry V600E): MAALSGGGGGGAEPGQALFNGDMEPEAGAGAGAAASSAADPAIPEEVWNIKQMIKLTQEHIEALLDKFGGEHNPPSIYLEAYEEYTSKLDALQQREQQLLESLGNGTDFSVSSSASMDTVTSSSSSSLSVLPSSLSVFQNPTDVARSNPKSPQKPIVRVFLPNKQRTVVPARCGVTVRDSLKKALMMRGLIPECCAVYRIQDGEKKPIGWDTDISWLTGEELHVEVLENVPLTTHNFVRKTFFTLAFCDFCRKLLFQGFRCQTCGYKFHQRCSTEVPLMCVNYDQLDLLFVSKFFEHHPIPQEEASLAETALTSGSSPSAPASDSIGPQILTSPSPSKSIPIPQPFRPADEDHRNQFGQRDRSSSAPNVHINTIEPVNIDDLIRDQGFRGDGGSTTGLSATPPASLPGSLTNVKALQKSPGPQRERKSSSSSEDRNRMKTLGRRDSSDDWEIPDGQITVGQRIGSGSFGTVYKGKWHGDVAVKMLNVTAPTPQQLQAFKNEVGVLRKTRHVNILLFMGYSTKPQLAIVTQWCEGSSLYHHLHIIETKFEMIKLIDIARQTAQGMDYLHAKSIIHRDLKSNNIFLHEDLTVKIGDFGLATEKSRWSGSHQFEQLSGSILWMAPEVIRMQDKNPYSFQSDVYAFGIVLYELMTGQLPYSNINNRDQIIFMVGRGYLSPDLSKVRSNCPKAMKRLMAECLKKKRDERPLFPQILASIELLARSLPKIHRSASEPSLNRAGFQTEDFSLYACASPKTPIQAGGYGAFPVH

Compound `Nc1c(C(=O)NCc2ccc(C(=O)NCCCC3CCCCC3)cc2)cnn1-c1ccccc1` [SR-318] has a residual activity [1] of 100%, a residual activity [2] of 90% and a residual activity [3] of 100%. It also gave a residual activity [4] of 77%, a residual activity [5] of 100% and a residual activity [6] of 100%. The residual activity [7] was 100%, the residual activity [8] was 92% and the residual activity [9] was 100%. The residual activity [10] was 23%, the residual activity [11] was 100% and the inhibition [12] was 21.2%. For the same compound, the residual activity [13] was 92%, the residual activity [14] was 100% and the residual activity [15] was 100%. The residual activity [16] was 100%, the residual activity [17] was 97% and the residual activity [18] was 100%. It also gave a residual activity [19] of 100%, an inhibition [20] of 25.3% and a residual activity [21] of 100%. For the same compound, the residual activity [22] was 84%, the residual activity [23] was 99% and the residual activity [24] was 100%. The residual activity [25] was 100%, the residual activity [26] was 100% and the residual activity [27] was 88%. It also gave a residual activity [28] of 71%, a residual activity [29] of 96% and a residual activity [30] of 100%. It also gave a residual activity [31] of 3.4%, a residual activity [32] of 100% and a residual activity [33] of 100%. For the same compound, the residual activity [34] was 98%, the residual activity [35] was 97% and the residual activity [36] was 100%. It also gave a residual activity [37] of 96%, a residual activity [38] of 100% and a residual activity [39] of 90%. The residual activity [40] was 93%, the residual activity [41] was 100% and the residual activity [42] was 100%. It also gave a residual activity [43] of 68%, a residual activity [44] of 100% and a residual activity [45] of 100%.

`O=C(NCCCC1CCCCC1)c1ccc(CNC(=O)c2cnn(-c3ccccc3)c2C(F)(F)F)cc1` [SR-321] showed a residual activity [1] of 76%, a residual activity [2] of 98% and a residual activity [3] of 100%. It also gave a residual activity [4] of 100%, a residual activity [5] of 77% and a residual activity [6] of 88%. For the same compound, the residual activity [7] was 100%, the residual activity [8] was 80% and the residual activity [9] was 100%. It also gave a residual activity [10] of 82%, a residual activity [11] of 100% and an inhibition [12] of 2.65%. The residual activity [13] was 100%, the residual activity [14] was 100% and the residual activity [15] was 100%. The residual activity [16] was 100%, the residual activity [17] was 100% and the residual activity [18] was 73%. It also gave a residual activity [19] of 100%, an inhibition [20] of 21.9% and a residual activity [21] of 84%. It also gave a residual activity [22] of 100%, a residual activity [23] of 100% and a residual activity [24] of 89%. For the same compound, the residual activity [25] was 80%, the residual activity [26] was 96% and the residual activity [27] was 100%. It also gave a residual activity [28] of 100%, a residual activity [29] of 97% and a residual activity [30] of 100%. The residual activity [31] was 100%, the residual activity [32] was 100% and the residual activity [33] was 100%. The residual activity [34] was 100%, the residual activity [35] was 100% and the residual activity [36] was 100%. For the same compound, the residual activity [37] was 67%, the residual activity [38] was 99% and the residual activity [39] was 87%. The residual activity [40] was 100%, the residual activity [41] was 100% and the residual activity [42] was 100%. It also gave a residual activity [43] of 100%, a residual activity [44] of 96% and a residual activity [45] of 100%.
